Here are results for 17 compounds from patent US10364256B2 (GlaxoSmithKline Intellectual Property Development Limited, priority 2015, dated 2019).

By IC50 is commonly meant the midpoint of a concentration-inhibition curve. A high value points to a need for much substance. The EC50 is the midpoint of the concentration-response curve.

The target in test [1] is T1, Keap1 Kelch domain (321-609) / TAMRA-labeled 16mer NRF2 peptide (ETGE motif) (Homo sapiens, UniProt Q14145).
T1 construct: the Kelch domain (321-609) of Keap1 is used
Put plainly: NRF2-Keap1 FP Assay (Keap1 Kelch fluorescence polarization). It counts as binding. Conditions: 20 nM Keap1 (321-609), 8 nM Tamra labeled peptide. The procedure, abridged:
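Compound dilutions (3-fold) were incubated 1 hr at room temperature with 20 nM Keap1 Kelch (321-609) and 8 nM TAMRA-labeled ETGE 16mer peptide. Buffer was 50 mM Tris pH 8.0, 100 mM NaCl, 5 mM MgCl2, 1 mM DTT, 2 mM CHAPS, 0.005% BSA. Fluorescence polarization (mP) was normalized to controls and fitted with a four-parameter equation to give pIC50.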
In general terms: Polarisation of emitted light reports the rotation of a fluorescent probe.

The test system of test [2] is NQO1 specific enzyme activity in BEAS-2B cells (marker for NRF2 activation). Put plainly: BEAS-2B NQO1 MTT Assay. It counts as cell-based. Conditions: Homo sapiens, compound incubated 48 hours, read-out: EC50 (NQO1 specific enzyme activity induction). Summed up:
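BEAS-2B cells treated with compound for 48 h at 37 °C, then lysed; NQO1 activity in lysates measured kinetically by MTT reduction at A570 over 30 min. pEC50 from 3-parameter fit of ΔOD/min versus log concentration; lysate also taken for Cell Titer Glo.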

The target in test [3] is T2, full length Keap1 protein / full length NRF2 protein (Homo sapiens, UniProt Q14145).
T2 construct: full length NRF2 protein and full length Keap1 protein (Keap1 exists a dimer) are used; His
Put plainly: NRF2-Keap1 TR-FRET Assay. It counts as binding. Conditions: 25 nM Keap1-FlagHis and 50 nM biotin-NRF2 added. The text has this:
In the NRF2-Keap1 TR-FRET (time-resolved fluorescence resonance energy transfer) assay, full length NRF2 protein and full length Keap1 protein (Keap1 exists a dimer) are used. The assay detects the ability of compound to displace the binding of FlagHis-tagged Keap1 with biotinylated, Avi-tagged NRF2 protein. Biotin-NRF2 binds to streptavidin-europium (a component of the detection mix) and Keap1-FlagHis is recognized by anti-Flag APC (allophycocyanin) antibody (also a component of the detection mix). If binding occurs between the two proteins, there will be an energy transfer from the Eu+3 (donor) at 615 nm to the APC (acceptor) at 665 nm. A potential Keap1 inhibitor will cause a reduction in the TR-FRET signal by interfering with the binding of Keap1 to NRF2.
One hundred nanoliters of 100× compound dose response curves (serial 3-fold dilutions) in DMSO are stamped using an Echo liquid handling system (Labcyte) into 384-well, low volume, black assay plates (Greiner, #784076), with DMSO in columns 6 and 18. The top concentration of compound is located in columns 1 and 13. All reagents are diluted in assay buffer (50 mM Tris, pH 8.0, 5 mM MgCl2, 100 mM NaCl, 0.005% BSA, 1 mM DTT, and 2 mM CHAPS). The BSA, DTT, and CHAPS are added to the assay buffer on the day of assay. Using a Multidrop Combi (Thermo Electron Corporation) equipped with a metal tip dispenser, 5 ul of 25 nM Keap1-FlagHis protein is added to all wells of the compound plate, with the exception of the wells in column 18. Wells in column 18 receive 5 ul of assay buffer instead. Plates are centrifuged at 500 rpm for 1 minute, covered with a plate lid, and incubated at 37° C. for 2.25 hours. Plates are then removed from the incubator and allowed to cool to RT for 15 minutes. Five microliters of 50 nM biotin-NRF2 protein is then added to all wells of the plates and the plates are spun at 500 rpm for 1 minute, followed by incubating at 4° C. for 1.25 hours. The plates are then allowed to warm to RT for 15 minutes, followed by the addition of 10 ul of detection mix (1 nM Streptavidin Eu+ W1024 and 5 ug/ml mouse anti-DYKDDDDK IgG conjugated to SureLight APC antibody; both from Columbia Biosciences) to all wells. Plates are spun at 500 rpm for 1 minute, incubated for 1 hour at RT, and read on an Envision plate reader using a 320 nm excitation filter and 615 nm and 665 nm emission filters. Compound response (% inhibition) and potency (pIC50) are calculated based on the ratio of the two emissions (665 nm/615 nm) and then the transformed data is normalized against controls in the assay (control 1=1% DMSO in the presence of NRF2 and Keap1 protein and control 2=1% DMSO in the absence of protein). Data analysis is handled using the software package Abase XE (Surrey, United Kingdom). The % inhibition values are calculated from the ratio (transformed) data by the equation: 100−(100*(compound response−average control 2)/(average control 1−average control2)). For calculation of pIC50s, Abase XE uses a four parameter equation. pIC50 is the negative log of the IC50.
A general note: Time-resolved FRET reads energy transfer from a long-lived donor to a nearby acceptor.

Each structure is given as a SMILES string. Read-outs that look alike come from different tables or passages of the source.

T2 sequence (Q14145 whole entry): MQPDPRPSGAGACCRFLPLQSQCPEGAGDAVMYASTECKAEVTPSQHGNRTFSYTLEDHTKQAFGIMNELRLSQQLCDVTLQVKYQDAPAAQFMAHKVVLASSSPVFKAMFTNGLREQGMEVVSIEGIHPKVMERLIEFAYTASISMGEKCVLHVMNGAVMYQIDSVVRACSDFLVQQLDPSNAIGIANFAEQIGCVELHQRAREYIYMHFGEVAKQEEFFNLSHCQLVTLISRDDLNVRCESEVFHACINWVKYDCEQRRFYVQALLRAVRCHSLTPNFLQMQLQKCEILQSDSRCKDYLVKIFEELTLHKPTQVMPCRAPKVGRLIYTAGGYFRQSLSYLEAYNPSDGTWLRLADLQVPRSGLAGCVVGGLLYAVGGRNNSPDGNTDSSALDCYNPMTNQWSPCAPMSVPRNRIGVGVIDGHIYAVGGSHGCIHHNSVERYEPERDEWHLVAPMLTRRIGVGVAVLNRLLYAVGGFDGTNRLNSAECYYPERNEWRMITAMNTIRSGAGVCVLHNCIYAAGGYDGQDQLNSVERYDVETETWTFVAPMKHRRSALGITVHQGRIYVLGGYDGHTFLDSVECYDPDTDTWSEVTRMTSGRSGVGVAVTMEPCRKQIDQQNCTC
T1 sequence (Q14145 321-609): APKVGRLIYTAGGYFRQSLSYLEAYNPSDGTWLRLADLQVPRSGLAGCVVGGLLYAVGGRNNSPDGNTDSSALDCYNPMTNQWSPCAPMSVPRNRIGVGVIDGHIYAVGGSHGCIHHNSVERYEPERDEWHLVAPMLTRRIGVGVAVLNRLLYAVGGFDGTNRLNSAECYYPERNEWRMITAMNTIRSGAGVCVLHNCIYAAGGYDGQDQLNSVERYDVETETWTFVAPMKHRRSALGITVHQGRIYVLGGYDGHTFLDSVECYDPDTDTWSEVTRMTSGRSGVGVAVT

As for `CN(CC1CC1)C(=O)c1cccc(-c2cccc(-n3ncc(C(=O)O)c3C3CC3)c2)c1F` [Example 48, 5-cyclopropyl-1-(3-{3-[(cyclopropylmethyl)(methyl)carbamoyl]-2-fluorophenyl}phenyl)-1H-pyrazole-4-carboxylic Acid], the values for the IC50 in test [1] and in test [3] were 100 to 1000 nM and 1000 to 10000 nM, respectively. Moreover, the EC50 in test [2] lay in the range of 1000 to 10000 nM.

Consider `Cn1cc(CCc2c(C(=O)O)cnn2-c2cccc(-c3cccc(OCC4CCCCC4)c3)c2)nn1` [Example 151, 1-(3-(Cyclohexylmethoxy)-[1,1′-biphenyl]-3-yl)-5-(2-(1-methyl-1H-1,2,3-triazol-4-yl)ethyl)-1H-pyrazole-4-carboxylic acid], for which the IC50 in test [1] lay within 1000 to 10000 nM; in test [3] it was 10000 to 100000 nM. Also, in test [2], the EC50 lay within 1000 to 10000 nM.

Take `COCCC(COc1cccc(-c2cccc(-n3ncc(C(=O)O)c3C3CC3c3cn(C)nn3)c2)c1)C1CCCCC1` (stereo not drawn) [Example 168, 1-(3′-(2-Cyclohexyl-4-methoxybutoxy)-[1,1′-biphenyl]-3-yl)-5-(2-(1-methyl-1H-1,2,3-triazol-4-yl)cyclopropyl)-1H-pyrazole-4-carboxylic acid]: the half-inhibitory concentration (IC50) was in the range of 10 to 100 nM in test [1] and 100 to 1000 nM in test [3]. Also, the EC50 in test [2] lay within 10 to 100 nM.

As for `Cn1cc(C2CC2c2c(C(=O)O)cnn2-c2cccc(-c3cccc(OCC4CCCOC4)c3)c2)nn1` (stereo not drawn) [Example 169, 5-(2-(1-Methyl-1H-1,2,3-triazol-4-yl)cyclopropyl)-1-(3′-((tetrahydro-2H-pyran-3-yl)methoxy)-[1,1′-biphenyl]-3-yl)-1H-pyrazole-4-carboxylic acid], the half-inhibitory concentration (IC50) in test [1] and in test [3] was 100 to 1000 nM in each case. Moreover, the EC50 in test [2] lay within 1000 to 10000 nM.

As for `CCC[C@@H]1CCCCN1C(=O)c1cccc(-c2cccc(-n3ncc(C(=O)O)c3C3CC3c3cnoc3C)c2)c1` (stereo partly drawn) [Example 159, 5-(2-(5-Methylisoxazol-4-yl)cyclopropyl)-1-(3′-((R)-2-propylpiperidine-1-carbonyl)-[1,1′-biphenyl]-3-yl)-1H-pyrazole-4-carboxylic Acid], the IC50 in test [1] and in test [3] was 10 to 100 nM in each case. Moreover, the EC50 in test [2] (BEAS-2B, 48 h) lay within 100 to 1000 nM.

In the case of `O=C(O)c1cnn(-c2cccc(-c3cccc(C(=O)N4CCCCC4)c3F)c2)c1C1CC1` [Example 20, 5-Cyclopropyl-1-{3-[2-fluoro-3-(piperidine-1-carbonyl)phenyl]phenyl}-1H-pyrazole-4-carboxylic Acid], the values for the IC50 in test [1] and in test [3] were 100 to 1000 nM and 1000 to 10000 nM, respectively. For the same compound, the EC50 in test [2] was in the range of 1000 to 10000 nM.

As for `CCCC(COc1cccc(-c2cccc(-n3ncc(C(=O)O)c3C3CC3c3cn(C)nn3)c2)c1)C1CCCCC1` (stereo not drawn) [Example 172, 1-(3′-((2-Cyclohexylpentyl)oxy)-[1,1′-biphenyl]-3-yl)-5-(2-(1-methyl-1H-1,2,3-triazol-4-yl)cyclopropyl)-1H-pyrazole-4-carboxylic acid], the half-maximal inhibitory concentration (IC50) in test [1] lay in the range of 100 to 1000 nM; in test [3], 1000 to 10000 nM. In addition, the half-maximal effective concentration (EC50) in test [2] was in the range of 100 to 1000 nM.

As for `Cc1nc(-c2cccc(-c3cccc(-n4ncc(C(=O)O)c4C4CC4)c3)c2)no1` [Example 211, 5-Cyclopropyl-1-(3′-(5-methyl-1,2,4-oxadiazol-3-yl)-[1,1′-biphenyl]-3-yl)-1H-pyrazole-4-carboxylic acid], the IC50 in test [1] was over 10000 nM; in test [3] it was 10000 to 100000 nM. Further, the EC50 in test [2] was in the range of 1000 to 10000 nM.

Regarding `CN(CC1CCCC1)C(=O)c1cccc(-c2cccc(-n3ncc(C(=O)O)c3C3CC3)c2)c1F` [Example 12, 1-(3-{3-[(Cyclopentylmethyl)(methyl)carbamoyl]-2-fluorophenyl}phenyl)-5-cyclopropyl-1H-pyrazole-4-carboxylic Acid], the 50% inhibitory concentration (IC50) fell in the range of 10 to 100 nM in test [1] and 100 to 1000 nM in test [3]. Besides, in test [2], the EC50 was in the range of 1000 to 10000 nM.

Turning to `Cc1ccnn1-c1cccc(-c2cccc(-n3ncc(C(=O)O)c3C3CC3)c2)c1F` [Example 39, 5-cyclopropyl-1-{3-[2-fluoro-3-(5-methyl-1H-pyrazol-1-yl)phenyl]phenyl}-1H-pyrazole-4-carboxylic Acid], the IC50 lay in the range of 100 to 1000 nM in test [1] and 1000 to 10000 nM in test [3]. In addition, in test [2], the EC50 was in the range of 1000 to 10000 nM.

As for `CC(C)Oc1cccc(-c2cccc(-n3ncc(C(=O)O)c3C(F)(F)F)c2)c1` [Example 11, 1-{3-[3-(propan-2-yloxy)phenyl]phenyl}-5-(trifluoromethyl)-1H-pyrazole-4-carboxylic Acid], the values for the IC50 in test [1] and in test [3] were 1000 to 10000 nM and 10000 to 100000 nM, respectively. Moreover, the EC50 in test [2] is 1000 to 10000 nM.

As to `CC1CCC(C)N1C(=O)c1cccc(-c2cccc(-n3ncc(C(=O)O)c3C3CC3)c2)c1F` (stereo not drawn) [Example 24, 5-Cyclopropyl-1-{3-[3-(2,5-dimethylpyrrolidine-1-carbonyl)-2-fluorophenyl]phenyl}-1H-pyrazole-4-carboxylic Acid], the IC50 in test [1] was in the range of 100 to 1000 nM; in test [3], 1000 to 10000 nM. In addition, in test [2], the concentration giving a half-maximal response (EC50) fell in the range of 1000 to 10000 nM.

For `CCCC1COCCN1C(=O)c1cccc(-c2cccc(-n3ncc(C(=O)O)c3C3CC3)c2)c1F` (stereo not drawn) [Example 27, 5-Cyclopropyl-1-{3-[2-fluoro-3-(3-propylmorpholine-4-carbonyl)phenyl]phenyl}-1H-pyrazole-4-carboxylic Acid], the IC50 in test [1] is 10 to 100 nM; in test [3], 100 to 1000 nM. Also, in test [2], the EC50 was in the range of 1000 to 10000 nM.

For the compound `CCCN(CC1CC1)C(=O)c1cccc(-c2cccc(-n3ncc(C(=O)O)c3C3CC3)c2)c1Cl` [Example 15, 1-(3-{2-Chloro-3-[(cyclopropylmethyl)(propyl)carbamoyl]phenyl}phenyl)-5-cyclopropyl-1H-pyrazole-4-carboxylic Acid], the IC50 fell in the range of 100 to 1000 nM in test [1] and 1000 to 10000 nM in test [3]. In addition, in test [2], the EC50 was in the range of 1000 to 10000 nM.

For `O=C(O)c1cnn(-c2cccc(-c3cccc(C(=O)N(CCC(F)(F)F)CC4CC4)c3F)c2)c1C1CC1` [Example 23, 5-Cyclopropyl-1-(3-{3-[(cyclopropylmethyl)(3,3,3-trifluoropropyl)carbamoyl]-2-fluorophenyl}phenyl)-1H-pyrazole-4-carboxylic Acid], the half-maximal inhibitory concentration (IC50) in test [1] is 100 to 1000 nM; in test [3], 1000 to 10000 nM. Also, the EC50 in test [2] lay within 1000 to 10000 nM.

`CCOC(c1cccc(-c2cccc(-n3ncc(C(=O)O)c3C3CC3c3cn(C)nn3)c2)c1)C(C)C` (stereo not drawn) [Example 182, 1-(3′-(1-Ethoxy-2-methylpropyl)-[1,1′-biphenyl]-3-yl)-5-(2-(1-methyl-1H-1,2,3-triazol-4-yl)cyclopropyl)-1H-pyrazole-4-carboxylic acid]: the IC50 in test [1] lay within 10 to 100 nM; in test [3] it was 100 to 1000 nM. Further, the EC50 in test [2] fell in the range of 100 to 1000 nM.

On to `Cn1cc([C@H]2C[C@@H]2c2c(C(=O)O)cnn2-c2cccc(-c3cccc(OCc4cncnc4)c3)c2)nn1` (racemic) [Example 236, 5-((1,2-trans)-2-(1-Methyl-1H-1,2,3-triazol-4-yl)cyclopropyl)-1-(3′-(pyrimidin-5-ylmethoxy)-[1,1′-bipheny1]-3-yl)-1H-pyrazole-4-carboxylic acid], for which the results for the IC50 in test [1] and in test [3] were 100 to 1000 nM and 1000 to 10000 nM, respectively. For the same compound, the concentration for a half-maximal effect (EC50) in test [2] lay within 1000 to 10000 nM.
